Values of other authors in patent publication US9827315B2, “Compositions of pharmaceutical actives containing diethylene glycol monoethyl ether or other alkyl derivatives” (THEMIS MEDICARE LIMITED, priority 2013, dated 2017).
≈ marks a conversion by molar mass, not a printed value. Structures can show the parent of a compound that is named as a salt. Where two headings read alike, the source gives them in different places.

Details: cited from earlier work

| Compound | Solubility in water (descriptive) | further results |
| --- | --- | --- |
| Cc1ccc(-c2ncc(Cl)cc2-c2ccc(S(C)(=O)=O)cc2)cn1 [Etoricoxib, 5-chloro-6′-methyl-3-[4-(methylsulfonyl)phenyl]-2,3′-bipyridine] | – | solubility in water: about 3.3 mg/L |
| CC1(C)O[C@@H]2C[C@H]3[C@@H]4CCC5=CC(=O)C=C[C@]5(C)[C@@]4(F)[C@@H](O)C[C@]3(C)[C@]2(C(=O)CO)O1 [Triamcinolone Acetonide, 9-Fluoro-11β,16α,17,21-tetrahydroxypregna-1,4-diene-3,20-dione cyclic 16,17acetal with acetone] | practically insoluble | – |
| C#C[C@]1(O)CC[C@H]2[C@@H]3CCc4cc(O)ccc4[C@H]3CC[C@@]21C [Ethinyl estradiol, 19-nor-17α-pregna-1,3,5(10)-trien-20-yne-3,17-diol] | practically insoluble | – |
| C[C@]12Cc3c[nH]nc3C[C@@H]1CC[C@@H]1[C@@H]2CC[C@@]2(C)[C@H]1CC[C@]2(C)O [Stanozolol] | practically insoluble | – |
| CCCCCCCCCC(=O)O[C@H]1CC[C@H]2[C@@H]3CCC4=CC(=O)CC[C@@H]4[C@H]3CC[C@]12C [Nandrolone Decoanate, Estr-4-en-3-one,17-[(1-oxodecyl)oxy]-,(17b)-] | practically insoluble | – |
| O=C(O)COC(=O)Cc1ccccc1Nc1c(Cl)cccc1Cl [Aceclofenac, 2-[2-[2-[(2,6-dichlorophenyl)amino]phenyl]acetyl]oxyacetic acid] | practically insoluble | – |
| COCCOC(=O)C1=C(C)NC(C)=C(C(=O)OC(C)C)C1c1cccc([N+](=O)[O-])c1 (stereo not drawn) [Nimodipine] | Soluble in methanol. Insoluble in water in beta cyclodextrin | – |
| CC1=C(C/C=C(\C)CCC[C@H](C)CCC[C@H](C)CCCC(C)C)C(=O)c2ccccc2C1=O [Phytomenadione, 2-methyl-3-phytyl-1,4-naphthoquinone] | insoluble | – |
| C#C[C@]1(OC(=O)CCCCCC)CC[C@H]2[C@@H]3CCC4=CC(=O)CC[C@@H]4[C@H]3CC[C@@]21C [Norethisterone enantate, 17alpha-Ethynyl-19-nortestosterone 17-heptanoate] | practically insoluble | – |
| CN1C(C(=O)Nc2ccccn2)=C(O)c2sc(Cl)cc2S1(=O)=O [Lornoxicam, (3E)-6-chloro-3-[hydroxy(pyridin-2-ylamino)methylene]-2-methyl-2,3-dihydro-4H-thieno[2,3-e][1,2]thiazin-4-one 1,1-dioxide] | hardly soluble | – |
| O=C1[C@H](CC[C@H](O)c2ccc(F)cc2)[C@@H](c2ccc(O)cc2)N1c1ccc(F)cc1 [Ezetimibe] | Freely to very soluble in ethanol, methanol, and acetone and practically insoluble in water. | – |
| CC1=C(/C=C/C(C)=C/C=C/C(C)=C/C(=O)O)C(C)(C)CCC1 [Tretinoin] | Insoluble in water | – |
| CC(=O)O[C@]1(C(C)=O)CC[C@H]2[C@@H]3C[C@H](C)C4=CC(=O)CC[C@]4(C)[C@H]3CC[C@@]21C [MPA, 17α-hydroxy-6α-methylpregn-4-ene-3,20-dione acetate] | insoluble | – |
| Cc1c(OCC(F)(F)F)ccnc1C[S@@+]([O-])c1nc2ccccc2[nH]1 [Dexlansoprazole, (R)-(+)2-([3-methyl-4-(2,2,2-trifluoroethoxy)pyridin-2-yl]methylsulfinyl)-1H-benzo[d]imidazole] | very slightly soluble | – |
| CCOC(=O)C1=C(COCCN)NC(C)=C(C(=O)OC)C1c1ccccc1Cl (racemic) [Amlodipine besylate, 3-Ethyl-5-methyl(±)-2-[(2-aminoethoxy)methyl]4-(2-chlorophenyl)-1,4-dihydro-6-methyl-3,5-pyridinedicarboxylate, mono benzene sulphonate] | slightly soluble | – |
| C=CC[C@]1(O)CC[C@H]2[C@@H]3CCC4=CCCC[C@@H]4[C@H]3CC[C@@]21C [Allyoestrenol, (17β)-17-(prop-2-en-1-yl)estr-4-en-17-ol] | practically insoluble | – |
| CN1CC(=O)N2[C@H](c3ccc4c(c3)OCO4)c3[nH]c4ccccc4c3C[C@@H]2C1=O [Tadalafil] | Insoluble in water and very slightly soluble in ethanol | – |
| COC(=O)C1=C(C)NC(C)=C(C(=O)OC2CCN(Cc3ccccc3)C2)[C@H]1c1cccc([N+](=O)[O-])c1.Cl (stereo in doubt) [Barnidipine Hydrochloride, 3-(3R)-1-benzylpyrrolidin-3-yl 5-methyl 2,6-dimethyl-4-(3-nitrophenyl)-1,4-dihydropyridine-3,5-dicarboxylate] | insoluble | – |
| NC(Cc1ccc(N(CCCl)CCCl)cc1)C(=O)O (stereo not drawn) [Melphalan] | – | solubility (solvent not given) (at 22° C.): < 0.1 g/100 mL |

| Compound | Solubility in water (descriptive) | further results |
| --- | --- | --- |
| CC[C@H]1OC(=O)[C@H](C)[C@@H](O[C@H]2C[C@@](C)(OC)[C@@H](O)[C@H](C)O2)[C@H](C)[C@@H](O[C@@H]2O[C@H](C)C[C@H](N(C)C)[C@H]2O)[C@](C)(O)C[C@@H](C)/C(=N\OCOCCOC)[C@H](C)[C@@H](O)[C@]1(C)O [Roxithromycin, (3R,4S,5S,6R,7R,9R,11S,12R,13S,14R)-6-[(2S,3R,4S,6R)-4-d-3-hydroxy-6-methyloxan-2-yl]oxy-14-ethyl-7,12,13-trihydroxy-4-[(2R,4R,5S,6S)-5-hydroxy-4-methoxy-4,6-dimethyloxan-2-yl]oxy-10-(2-methoxyethoxymethoxyimino)-3,5,7,9,11,13-hexamethyl-1-oxacyclotetradecan-2-one] | almost insoluble | water solubility (dissolved in 30 ml water): 0.1 g |
| COC(=O)C1=C(C)NC(C)=C(C(=O)O[C@@H]2CCCN(Cc3ccccc3)C2)C1c1cccc([N+](=O)[O-])c1 (stereo partly drawn) [Benidipine Hydrochloride, O5-methyl O3-[(3R)-1-(phenylmethyl)piperidin-3-yl]2,6-dimethyl-4-(3-nitrophenyl)-1,4-dihydropyridine-3,5-dicarboxylate] | practically insoluble | – |
| CCC(C)n1ncn(-c2ccc(N3CCN(c4ccc(OC[C@H]5CO[C@](Cn6cncn6)(c6ccc(Cl)cc6Cl)O5)cc4)CC3)cc2)c1=O (mixture of isomers) [Itraconazole] | Soluble in organic solvents such as DMSO and dimethyl formamide. Insoluble in water. | – |
| (3R,4S,5S,6R,7R,9R,11R,12R,13S,14R)-4-[(2,6-Dideoxy-3-C-methyl-3-O-methyl-a-L-ribo-hexopyranosyl)oxy]-14-ethyl-12,13-dihydroxy-7-methoxy-3,5,7,9,11,13-hexamethyl-6-[[3,4,6-trideoxy-3-(dimethylamino)-b-D-xylo-hexopyranosyl]oxy]oxacyclotetradecane-2,10-dione [Clarithromycin] | insoluble | – |
| Brc1c(NC2=NCCN2)ccc2nccnc12 [Brimonidine tartarate] | – | solubility in water (at pH 6.5): 34 mg/mL (≈ 116 mM) |
| CC(=O)S[C@@H]1CC2=CC(=O)CC[C@]2(C)[C@H]2CC[C@@]3(C)[C@@H](CC[C@@]34CCC(=O)O4)[C@H]12 [Spironolactone, 17-hydroxy-7α-mercapto-3-oxo-17α-pregn-4-ene-21-carboxylic acid, γ-lactone acetate] | – | solubility in water (at 25° C.): about 22 mg/L |
| C[C@H](CS)C(=O)N1CCC[C@H]1C(=O)O [Captopril, (2S)-1-[(2S)-2-methyl-3-sulfanylpropanoyl]pyrrolidine-2-carboxylic acid] | easily soluble | – |
| CCCC(=O)OCOC(=O)C1=C(C)NC(C)=C(C(=O)OC)[C@H]1c1cccc(Cl)c1Cl [Clevidipine, O3-(butanoyloxymethyl) O5-methyl (4R)-4-(2,3-dichlorophenyl)-2,6-dimethyl-1,4-dihydropyridine-3,5dicarboxylate] | practically insoluble | – |
| CC(=O)O[C@]1(C(C)=O)CC[C@H]2C3C[C@H](C)C4=CC(=O)C=CC4(C)[C@@]3(F)[C@@H](O)CC21C (stereo partly drawn) [Flurometholone Acetate] | Freely soluble in chloroform and acetone, soluble in ethanol, very slightly soluble in water | – |
| CC(=O)OCC(=O)[C@@]1(O)CC[C@H]2[C@@H]3CCC4=CC(=O)C=C[C@]4(C)[C@H]3[C@@H](O)C[C@@]21C [Prednisolone acetate, 11β,17,21-Trihydroxypregna-1,4-diene-3,20-dione 21-acetate] | practically insoluble | – |
| C[C@H]1[C@H](OC(=O)CCC(=O)[O-])O[C@@H]2O[C@@]3(C)CC[C@H]4[C@H](C)CC[C@@H]1[C@@]24OO3.[Na+] [sodium Artesunate] | soluble | – |
| Rimexolone | Very slightly soluble in water; freely soluble in chloroform; soluble in ethyl acetate and in methanol | – |
| (3R,4S,5S,6R,7R,9R,11S,12R,13S,14S)-6-{[(2S,3R,4S,6R) -4-(dimethylamino)-3-hydroxy-6-methyloxan-2-yl]oxy}-14-ethyl-12,13-dihydroxy-4-{[(2R,4S,5S,6S)-5-hydroxy-4-methoxy-4,6-dimethyloxan-2-yl]oxy}-7-methoxy-3,5,7,9,11,13-hexamethyl-1-oxacyclotetradecane-2,10-dione [Azithromycin] | practically insoluble | – |
| Cl.N[C@@H]1CCCCN(c2c(F)cc3c(=O)c(C(=O)O)cn(C4CC4)c3c2Cl)C1 [Besifloxacin] | – | solubility in DMSO: Sparingly soluble in methanol, Sparingly soluble in water (1 mg/mL), DMSO (<1 mg/mL); solubility in water: Sparingly soluble in methanol, Sparingly soluble in water (1 mg/mL), DMSO (<1 mg/mL) |
| C=C(c1ccc(C(=O)O)cc1)c1cc2c(cc1C)C(C)(C)CCC2(C)C [Bexarotene] | Insoluble in water and slightly soluble in vegetable oils and ethanol, USP | – |
| CCCCCCCC/C=C\CCCCCCCC(=O)OCC [Ethyl oleate] | – | viscosity of vehicle (at 25° C.): 3.9 Cps |
| COc1cccc2c1C(=O)c1c(O)c3c(c(O)c1C2=O)C[C@@](O)(C(=O)CO)C[C@@H]3O[C@H]1C[C@H](N)[C@H](O)[C@H](C)O1 [Doxorubicin] | – | solubility in water (with slight warming): 10 mg/mL (≈ 18.4 mM) |
| Tacrolimus | Insoluble in water, freely soluble in ethanol, and very soluble in methanol and chloroform. | – |
